The source of these data is article PMC7463714, “Design and Synthesis of Novel Hybrid 8-Hydroxy Quinoline-Indole Derivatives as Inhibitors of Aβ Self-Aggregation and Metal Chelation-Induced Aβ Aggregation” (Molecules, 2020).

In this test the target is T1, Aβ1–42 (Homo sapiens, UniProt P05067).
T1 construct: Aβ1–42 (Adooq Bioscience, CA, USA); purchased Adooq Bioscience
T1 sequence (P05067 672-713 limits assumed): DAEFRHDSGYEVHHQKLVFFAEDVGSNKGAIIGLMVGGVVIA
In words: Self-induced Aβ1–42 aggregation, thioflavin T (ThT) fluorescence assay. Format: biochemical. The note with it: 25 µM Aβ1–42; compound 0.3-27 µM; 37 °C, 48 h; ThT fluorescence; read-out: EC50 against self-induced Aβ1–42 aggregation. Here is the method:
The novel hybrid 8-hydroxyquinoline-indole derivatives, 7a–7e, 12a, 12b, and the (8-hydroxyquinolin-2-yl)methyl-4-(1H-indole-2-carbonyl)piperazine-1-carboxylate analogs 18a–18h were evaluated for inhibitory activity against self-induced Aβ1–42 aggregation at five different concentrations (0.3, 1.0, 3, 9 and 27 µM) with 25 µM Aβ1–42, utilizing a thioflavin T (ThT) fluorescence assay with clioquinol, 1 as a positive control (Figure 3). In the absence of inhibitor, the self-induced Aβ1–42 aggregation ThT fluorescence was recorded as 115 arbitrary units (a.u.). The self-induced Aβ1–42 aggregation results for all the above synthetic analogs from the ThT fluorescence assay are shown in Table 1. […] The thioflavin T (ThT)-fluorescence assay was used to measure the inhibition of Aβ aggregation. Aβ1–42 (Adooq Bioscience, CA, USA) was pretreated with 1 mL of hexafluoroisopropanol (HFIP) to afford a stock solution, which was aliquoted into small samples. The solvent was evaporated at room temperature, and samples were stored at −80 °C. For Aβ1–42 aggregation inhibition experiments, phosphate buffer (pH 7.4) was added to the Aβ stock solution to afford a 50 µM concentration before use. A mixture of the Aβ1–42 peptide (10 µL, 25 µM final concentration) with or without the test compound (10 µL; 0.3, 1.0, 3, 9, and 27 µM) was incubated at 37 °C for 48 h. Blanks using phosphate buffer (pH 7.4) instead of Aβ, with or without test compound, were also assessed. Then 50 mM glycine-NaOH buffer (pH 8.0) containing ThT (5 µM) was added to 20 µL of the sample to afford a final volume of 200 µL. The fluorescence intensities were recorded (excitation, 450 nm; emission, 485 nm). The fluorescence intensities were background corrected to the no enzyme control and 100% of intensity reflected no inhibition of aggregation. To obtain the normalized amyloid aggregation inhibition relative to the control group, the amyloid aggregation/cell values were further divided by the total amyloid fluorescence of the control group. Using GraphPad Prism, the amyloid aggregation values (relative to control group) were entered along the corresponding concentrations for the triplicates and then a log transformation was obtained. Using the dose–response simulation module in GraphPad Prism, nonlinear regression fit (curve) was then generated for each small molecule with various concentrations used. Curves were then compared to determine if they were statistically different, by performing the best-fit values of selected unshared parameters between data sets and extra sum-of-squares F test, allowing for selection of the simpler model unless the P value was less than 0.05. The logEC50 output parameter was then selected to obtain the EC50 for each of the dose–response curves for the small molecules.
The term EC50 denotes the concentration giving half of the maximal effect. With `O=C(OCc1ccc2cccc(O)c2n1)N1CCN(C(=O)c2cc3ccccc3[nH]2)CC1` [Compound 18a, (8-Hydroxyquinolin-2-yl)methyl-4-(1H-indole-2-carbonyl)piperazine-1-carboxylate], the EC50 is above 10 µM. For `O=C(OCc1ccc2cccc(O)c2n1)c1cc2cc(F)ccc2[nH]1` [Compound 7d, (8-Hydroxyquinolin-2-yl)methyl-5-fluoro-1H-indole-2-carboxylate], the EC50 is 6.34 µM. Regarding `COc1ccc2[nH]c(C(=O)OCc3ccc4cccc(O)c4n3)cc2c1` [Compound 7c, (8-Hydroxyquinolin-2-yl)methyl-5-methoxy-1H-indole-2-carboxylate], the EC50 was determined as 3.22 µM.

With `O=C(OCc1ccc2c(Br)cc(Br)c(O)c2n1)N1CCN(C(=O)c2cc3ccccc3[nH]2)CC1` [Compound 18b, (5,7-Dibromo-8-hydroxyquinolin-2-yl)methyl-4-(1H-indole-2-carbonyl)piperazine-1-carboxylate], the EC50 was above 10 µM. Consider `O=C(O)c1cc2ccccc2[nH]1` [Compound 5a, 1H-indole-2-carboxylic acid, reference compound], for which the 50% effective concentration (EC50) is above 20 µM. With `O=C(OCc1ccc2c(Cl)cc(Cl)c(O)c2n1)c1cc2cc(F)ccc2[nH]1` [Compound 7e, (5,7-Dichloro-8-hydroxyquinolin-2-yl)methyl-5-fluoro-1H-indole-2-carboxylate], the EC50 turned out to be 9.52 µM. With `O=C(OCc1ccc2c(Cl)cc(Cl)c(O)c2n1)c1cc2ccccc2[nH]1` [Compound 7b, (5,7-Dichloro-8-hydroxyquinolin-2-yl)methyl-1H-indole-2-carboxylate], the EC50 came to 9.28 µM.

As to `COc1ccc2[nH]c(C(=O)NCc3ccc4c(Cl)cc(Cl)c(O)c4n3)cc2c1` [Compound 12b, N-((5,7-Dichloro-8-hydroxyquinolin-2-yl)methyl)-5-methoxy-1H-indole-2-carboxamide], the EC50 is above 10 µM.

Take `O=C(OCc1ccc2c(Cl)cc(Cl)c(O)c2n1)N1CCN(C(=O)c2cc3cc(F)ccc3[nH]2)CC1` [Compound 18g, (5,7-Dichloro-8-hydroxyquinolin-2-yl)methyl-4-(5-fluoro-1H-indole-2-carbonyl)piperazine-1-carboxylate]: the EC50 is above 10 µM. As to `O=C(NCc1ccc2c(Cl)cc(Cl)c(O)c2n1)c1cc2ccccc2[nH]1` [Compound 12a, N-((5,7-Dichloro-8-hydroxyquinolin-2-yl)methyl)-1H-indole-2-carboxamide], the EC50 is above 10 µM. For `O=C(OCc1ccc2cccc(O)c2n1)N1CCN(C(=O)c2cc3cc(F)ccc3[nH]2)CC1` [Compound 18h], the EC50 turned out to be 2.58 µM. `COc1ccc2[nH]c(C(=O)N3CCN(C(=O)OCc4ccc5c(Br)cc(Br)c(O)c5n4)CC3)cc2c1` [Compound 18e, (5,7-Dibromo-8-hydroxyquinolin-2-yl)methyl-4-(5-methoxy-1H-indole-2-carbonyl)piperazine-1-carboxylate]: the EC50 is 2.49 µM.
